This is an account of results in patent US10716769B2 (GUANGZHOU JTREAT BIOSCI. LTD., priority 2015, dated 2020).

In brackets after ≈: the same amount, converted by molar mass. Like-named read-outs stand apart in the source and are kept apart here. Bounds are passed on as bounds.

Series [1] concerns the target T1, HIV-1 integrase (Human immunodeficiency virus type 1 group M subtype B, UniProt P04585).
T1 construct: purified HIV-1 integrase is added to donor substrates coated 96-well plate; made in house
Kind of series: Test of sample inhibition to HIV-1 integrase (ELISA, strand transfer). Format: biochemical. The conditions noted are these: for inhibition at 109 µg/mL: read-out: IC50 (HIV-1 IN inhibition), dash. As to the method:
The half-inhibitory concentration IC50 for 3′ excision of the substrate and the strand transfer is in the range of 88.92-10.20 μg/ml, in which the best inhibitory activity of the compound is higher than that of the monomer compound of hydroxybenzoic acid. The mechanism of the HIV-1 integrase is a two-step reaction: 1) 3′ Processing: the integrase binds to the specific sequences of the long terminal repeat region (LTR) of the proviral DNA to form a stable complex, then the endonucleotides of 3′ end of nucleoside is processed, and the GT dinucleotide of the sequence . . . […] Thus, the activity of the integrase inhibitor is embodied in inhibiting the excision of the 3′end of the viral DNA or the strand transfer, and is represented by a half-inhibitory concentration IC50.
In vitro integrase test, 30 synthetic oligonucleotides are used as donor substrates, 20 synthetic oligonucleotides are used as target substrates. Purified HIV-1 integrase is added to donor substrates coated 96-well plate, ELISA reaction is performed, the product of the strand transfer of target DNA is detected, color development is conducted by biotin-labeled alkaline phosphatase system, and the microplate reader is used to measure the OD value.
First, inhibitors of the enzyme may be screened by adding a sample to the reaction system. Before use, the sample is prepared with DMSO to an appropriate concentration, and then is diluted 5 times at 4 dilutions. The sample after dilution is added into the donor substrate coated 96-well plate, and then added to the reaction Buffer containing the genetically engineered target enzyme and the biotin-target substrate, incubated under optimal reaction conditions, and colored by biotin-labeled alkaline phosphatase system, and the OD value for absorbance value at 405 nm is measured.
30 synthetic oligonucleotides are used as donor substrates, 20 synthetic oligonucleotides are used as target substrates, purified HIV-1 integrase is added to donor substrates coated 96-well plate, ELISA reaction is performed, the product of the strand transfer of target DNA is detected, color development is conducted by biotin-labeled alkaline phosphatase system, and the OD value is measured by a microplate reader. The addition of samples to the reaction system can be used to screen inhibitors for the enzyme.
1. HIV-1 IN: it is extracted and saved by Chinese National New Drug Screening Center and Institute of Pharmaceutical Biotechnology under Chinese Academy of Medical Sciences.
2. Sample Treatment: 10 samples A1-A10 dissolved into DMSO prior to use are prepared into suitable concentrations, and then diluted 5 times at 4 dilutions. Donor substrate and target substrate are from Shanghai Biochemical Synthesis.
3. Method for Test: the samples after dilution are added into the donor substrate coated 96-well plate, then added to the reaction Buffer containing the genetically engineered target enzyme and the biotin-target substrate, incubated under optimal reaction conditions, and colored by biotin-labeled alkaline phosphatase system, and the OD value for absorbance value at 405 nm is measured.
(In general: In an ELISA, binding on a coated surface is turned into a signal by an enzyme label.)

The subject of series [2] is HPV 6/11 Virus. Kind of series: HPV detection via fluorescence quantitative PCR in genital warts tissue homogenate. The arrangement: species or system human papillomavirus. The conditions noted are these: for HPV 6/11 virus detection, in words: 24 hours after addition into the tissue homogenate of genital warts; for HPV 6/11 Virus: genital warts tissue homogenate, 37° C., 24 hours, FQ-PCR. The text has this:
(§1) The aforesaid compounds and/or compositions containing the same are effective in killing and inhibiting HPV type 6/11 and type 16/18, which can be used for the preparation of drugs for preventing and treating viral infection of HPV, preventing and treating genital warts, flat warts, common warts, vaginitis, cervicitis and cervical erosion, cervical cancer, esophageal cancer and other cancers caused by HPV. The present invention observes the effect of active ingredients and products by the detection of the change in the amount of the HPV virus through the real-time quantitative PCR. Such method has been applied in several publications (Youling C A I, et al., Chinese STD/AIDS, 2002, 8: 2,108; Yuansheng W U, Ruijiang F A N, et al., Practical Application of Integrated Chinese and Western Medicine in Clinics, 2003, 3: 2,1).
(§2) The microemulsion obtained in example 1 is used as a test sample and saline for blank control.
(§3) The standard clinical genital warts specimens from a variety of patients after being cut off are washed with saline for removing bloods, and are cut into pieces under aseptic conditions, added with saline in 3 times of their volumes to be uniformly mixed, grinded into homogenate and placed at −40° C. for use.
(§4) Each test sample drug microemulsion and the saline of 50 μl for each are respectively added with 50 μl the genital warts tissue homogenate, and incubated at 37° C. for 24 hours; tests are performed according to the operation procedure provided by the HPV6, 11 and 16, 18 type FQ-PCR diagnostic kits provided by Da'an Gene Diagnostic Center. 0.2 ml of DNA extracted by the conventional alkaline lysis method is put into the thin-walled reaction tube, and simultaneously added with primers, F-PROBE, DNTP, DNA polymerase, buffers and the like in a certain concentration; ABI PRISM™ 7700 fluorescence quantitative PCR amplifier is used to repeat 40 circulations each with 45 s at 93° C. and 120 s at 55° C. after predegeneration at 93° C. for 2 mins; the quantitative results are automatically analyzed by the computer software to calculate the quantitative results of the initial copy number. The data are shown in Table 2 (completed by Da'an Gene Clinical Test Center).

Series [3] relates to HPV16/18. The description is as above. Set-up: species or system human papillomavirus. The conditions noted are these: for HPV16/18 virus detection, in words: 24 hours after addition into the tissue homogenate of genital warts; for HPV16/18: genital warts tissue homogenate, 37° C., 24 hours, FQ-PCR.
Excerpt: as §1, §2, §3, §4

The test system of series [4] is HSV-I, VR733 strain. Kind of series: Inhibition of cytopathic effects of Vero cells caused by herpes virus type I. Type of series: cell-based. The conditions noted are these: for IC50: read-out: IC50 Against HSV-1. The text has this:
(§5) Vero cells (kidney cells of African green monkey) are used as viral hosts to test the inhibition degree of the samples to the cytopathic effects of Vero cells caused by herpes virus type I and type II.
(§6) Vero cells (kidney cells of African green monkey) are used as viral hosts to test the inhibition degree of the samples to cytopathic effects of the Vero cell caused by herpes virus type I and type II.
(§7) 1. Virus strains: HSV-I, VR733 strain, and HSV-II, SAV strain, which both are provided by ATCC.
(§8) 2. Sample treatment: the sample is dissolved in DMSO at an appropriate concentration before use, and diluted with the culture medium 3 times at a total of 8 dilutions for test.
(§9) 3. Positive control drug: acyclovir (ACV) produced by the Hubei Ke Yi pharmaceutical factory.

The subject of series [5] is HSV-II, SAV strain. The series is described as follows: Inhibition of cytopathic effects of Vero cells caused by herpes virus type II. Type of series: cell-based. The conditions noted are these: for IC50: read-out: IC50 Against HSV-II.
Excerpt: as §5, §6, §7, §8, §9
On the technique in general: Damage to the host cells serves as the signal in cytopathic effect assays.

The test system of series [6] is Vero cells. The series is described as follows: Half toxic concentration in the anti-herpes screening. Format: cell-based, African green monkey. As for the experimental part: Vero cells (kidney cells of African green monkey) are used as viral hosts to test the inhibition degree of the samples to cytopathic effects of the Vero cell caused by herpes virus type I and type II. 2. Sample treatment: the sample is dissolved in DMSO at an appropriate concentration before use, and diluted with the culture medium 3 times at a total of 8 dilutions for test. 4.

[7] abbreviates: Vero cells, CPE 48 hours, Reed-Muench.

The IC50 is the point on the concentration scale where inhibition reaches its midpoint. In series [1], `O=C(c1ccccc1O)c1cccc(O)c1O` [2,2′3′-trihydroxybenzophenone] had an IC50 of 45.4 µM. For the same molecule, in series [2], the “HPV 6/11 virus detection, in words” value is “can no longer be detected” and the “HPV 6/11 Virus” value is listed as 0 copy/ml. For the same molecule, in series [3], the “HPV16/18 virus detection, in words” value is given as “can no longer be detected” and the HPV16/18 turned out to be 0 copy/ml.
`O=C(c1ccccc1O)c1ccccc1O` [2,2′-dihydroxybenzophenone] gave an IC50 in series [1] of 71.5 µM. Moreover, in series [2], the “HPV 6/11 virus detection, in words” value is given as “can no longer be detected” and the “HPV 6/11 Virus” value amounted to 0 copy/ml. For the same molecule, in series [3], the “HPV16/18 virus detection, in words” value is reported as “can no longer be detected” and the HPV16/18 worked out at 0 copy/ml. The IC50 in series [4] (Human alphaherpesvirus 1, Vero, 48 h) worked out at 28.7 µg/mL (≈ 134 µM). In addition, the IC50 in series [5] (Human alphaherpesvirus 2, Vero, 48 h) worked out at 28.7 µg/mL (≈ 134 µM). The “TC50 half toxic concentration” value in series [6] came out at 64.15 µg/mL (≈ 299 µM).
Turning to `O=C(c1ccc(O)cc1O)c1cc(O)c(O)c(O)c1O` [2,3,4,2′,4′,5-hexahydroxybenzophenone], in series [4] (setting [7]), the “IC50 Against HSV-1” value was 28.74 µg/mL (≈ 103 µM). Moreover, the “IC50 Against HSV-II” value in series [5] (setting [7]) stood at 28.74 µg/mL (≈ 103 µM).
The inhibition is the relative decrease from the control value, in per cent. With `O=C(O)c1cccc(O)c1O` [2,3-dihydroxybenzoic acid, reference compound], in series [1], the inhibition at 109 µg/mL was below 50%. Besides, in series [2], the “HPV 6/11 virus detection, in words” value is “have a high concentration” and the “HPV 6/11 Virus” value is 2.30 × 10^4 copy/ml. In series [3], the “HPV16/18 virus detection, in words” value is recorded as “have a high concentration” and the HPV16/18 is given as 3.20 × 10^3 copy/ml.
In the case of `O=C(O)c1cc(O)c(O)c(O)c1` [3,4,5-trihydroxybenzoic acid, reference compound], the IC50 in series [1] was 591 µM. Also, in series [2], the “HPV 6/11 Virus” value is 0 copy/ml. Also, in series [3], the HPV16/18 turned out to be 0 copy/ml.
For the molecule `O=C(O)c1ccc(O)c(O)c1` [3,4-dihydroxybenzoic acid, reference compound], in series [1], the inhibition at 109 µg/mL was below 50%. Also, in series [2], the “HPV 6/11 virus detection, in words” value is reported as “have a high concentration” and the “HPV 6/11 Virus” value is recorded as 1.90 × 10^4 copy/ml. Further, in series [3], the “HPV16/18 virus detection, in words” value is on record as “have a high concentration” and the HPV16/18 is 8.50 × 10^4 copy/ml.
Consider `Nc1nc2c(ncn2COCCO)c(=O)[nH]1` [ACV, acyclovir, reference compound], for which the IC50 came to 1.09 µg/mL (≈ 4.85 µM) in series [4] (Human alphaherpesvirus 1, Vero cells, CPE 48 hours, Reed-Muench) and 1.23 µg/mL (≈ 5.46 µM) in series [5] (Human alphaherpesvirus 2, Vero cells, CPE 48 hours, Reed-Muench).
